Patent US4239887A, “Pyridothienotriazines” (USV Pharmaceutical Corporation, priority 1979, dated 1980)

Legend:
[1] = system: formation of a wheal (Rat Passive Cutaneous Anaphylaxis); experiment: Rat Passive Cutaneous Anaphylaxis (PCA) Screen, inhibition of wheal formation; assay type: in vivo; details: for ED50: oral (p.o.), rat PCA, read-out: ED50 (dose required to give 50% reduction in wheal size)
Source text: The compounds of this invention have potent activity in inhibiting the formation of a wheal when screened according to the Rat Passive Cutaneous Anaphylaxis Screen as is described by I. Mota, Life Sciences, 7, 465 (1963) and Z. Ovary, et al., Proceedings of Society of Experimental Biology and Medicine, 81, 584 (1952).
The activities are given as ED50 values, which are the doses required to give 50% reductions in wheal size.

[2] = oral anti-allergy activity in standard tests; assay type: in vivo; details: standard tests for anti-allergy activity

Row | SMILES | ED50 [1] [mg/kg] | anti-allergy activity (in words) [2] | inhibition of wheal size ([1]; tested at 25 mg/kg, p.o.) [%]
1 | Oc1nnnc2c1sc1nc(-c3ccccc3)ccc12 [7-phenyl, OH, 4-Hydroxy-7-phenylpyrido[3',2':4,5]thieno[3,2-d]-1,2,3-triazine] | 0.74 | – | –
2 | Cc1ccc2c(n1)sc1cnnnc12 [7-CH3, H, 7-Methylpyrido[3',2':4,5]thieno[3,2-d]-1,2,3-triazine] | 1 | – | –
3 | Oc1nnnc2c1sc1ncccc12 [4-Hydroxy-pyrido[3',2':4,5]thieno[3,2-d]-1,2,3-triazine, reference compound] | – | essentially inactive | 31
4 | Cc1cc(C)c2c(n1)sc1c(O)nnnc12 [7,9-diCH3, OH, 4-Hydroxy-7,9-dimethylpyrido[3',2':4,5]thieno[3,2-d]-1,2,3-triazine] | 5.6 | – | –
5 | Cc1ccc2c(n1)sc1c(O)nnnc12 [7-CH3, OH, 4-Hydroxy-7-methylpyrido[3',2':4,5]thieno[3,2-d]-1,2,3-triazine] | 6 | – | –
